These results are taken from patent US20150148393A1, “COSMETIC AND/OR PHARMACEUTICAL COMPOSITION FOR THE TREATMENT OF SKIN INFLAMMATION AND RELATED SYNDROMES” (GENERAL TOPICS S.R.L., priority 2012, published 2015).

The assay relates to TNF alpha release from human keratinocytes. Kind of assay: Inhibition of SLS-induced TNF alpha release from human keratinocytes. Particulars: release induced by sodium lauryl sulphate (SLS), after a 24 hour-period. It is filed as cell-based. From the text: A comparison was made between the inhibition of TNF alpha release from human keratinocytes as induced by contact with sodium lauryl sulphate (SLS) and obtained with the use of methyl sulfonyl methane (MSM), and that obtained with the use of hydrocortisone, a compound known to be active in inhibiting the release of TNF alpha. […] Therefore, the studies performed pointed out that MSM can decrease both the release of TNF alpha (this cytokine is expressed by keratinocytes in an inflammatory process of the skin) and the overall intensity of erythema even when TNF alpha is over-expressed by ultraviolet radiations. […] Moreover, it should be noted that TNF alpha can activate TRPV receptors and, therefore, a decrease in the production thereof can prevent it from exerting an agonist effect on the receptors themselves.

For `C[C@]12CCC(=O)C=C1CC[C@@H]1[C@@H]2[C@@H](O)C[C@@]2(C)[C@H]1CC[C@]2(O)C(=O)CO` [hydrocortisone], the “percentage decrease of TNF alpha release” value is on record as 5.25%.
The result for `CS(C)(=O)=O` [MSM, methyl sulfonyl methane] reads 12.33%.
